Measurements as given in ChEMBL document CHEMBL3259655, “Anthranilic acid derivatives as novel ligands for farnesoid X receptor (FXR)” (Bioorg Med Chem, 2014).
Converted amounts (≈) assume the structure as drawn. The source made the active and inactive calls. The calls are words filed in the database; no cut-off is given here.

What was measured:
[1] = target: T1, Bile acid receptor (Homo sapiens) (UniProt Q96RI1); experiment: Agonist activity at human FXR expressed in human HeLa cells assessed as transactivation after 24 hrs by luciferase reporter gene assay relative to GW4064; format: cell-based
T1 sequence (whole entry): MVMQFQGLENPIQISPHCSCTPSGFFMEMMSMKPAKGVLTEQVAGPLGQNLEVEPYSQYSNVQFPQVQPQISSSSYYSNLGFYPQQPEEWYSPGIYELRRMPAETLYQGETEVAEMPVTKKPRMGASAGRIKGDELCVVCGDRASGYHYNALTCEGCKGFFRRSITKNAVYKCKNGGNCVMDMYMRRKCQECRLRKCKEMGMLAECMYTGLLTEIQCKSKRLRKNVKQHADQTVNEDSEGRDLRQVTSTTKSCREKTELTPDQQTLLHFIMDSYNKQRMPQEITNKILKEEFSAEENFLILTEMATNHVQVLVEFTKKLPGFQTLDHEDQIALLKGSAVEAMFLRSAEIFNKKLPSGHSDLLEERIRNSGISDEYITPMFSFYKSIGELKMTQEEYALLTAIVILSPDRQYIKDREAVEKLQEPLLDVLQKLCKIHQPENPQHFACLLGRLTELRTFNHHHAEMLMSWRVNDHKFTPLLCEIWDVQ

[2] = target: T2, Bile acid receptor (Homo sapiens, UniProt Q96RI1); experiment: Agonist activity at human FXR expressed in human HeLa cells assessed as transactivation after 24 hrs by luciferase reporter gene assay; format: cell-based
T2 sequence (Q96RI1 whole entry): T1 sequence (whole entry)

[3] = target: T1, Bile acid receptor (Homo sapiens); experiment: Agonist activity at human FXR expressed in human HeLa cells assessed as transactivation at 3 uM after 24 hrs by luciferase reporter gene assay relative to GW4064; format: cell-based
[4] = tested on: HeLa; experiment: Cytotoxicity against human HeLa cells at >10 uM after 48 hrs by WST-1 assay; format: cell-based
[5] = target: T1, Bile acid receptor (Homo sapiens); experiment: Agonist activity at human FXR expressed in human HeLa cells assessed as transactivation at 30 uM after 24 hrs by luciferase reporter gene assay relative to GW4064; format: cell-based
[6] = tested on: HepG2; experiment: Cytotoxicity against human HepG2 cells at 30 uM after 48 hrs by WST-1 assay relative to control; format: cell-based; conditions: hepg2, 48 h
[7] = Aqueous solubility of the compound; format: physicochemical; conditions: water
[8] = Metabolic stability in Sprague-Dawley rat liver microsomes assessed as compound remaining at 10 uM after 60 mins by HPLC analysis; format: ADME; conditions: read-out: Stability
[9] = tested on: HepG2; experiment: Cytotoxicity against human HepG2 cells at 60 uM after 48 hrs by WST-1 assay relative to control; format: cell-based; conditions: hepg2, 48 h
[10] = tested on: HepG2; experiment: Cytotoxicity against human HepG2 cells at 100 uM after 48 hrs by WST-1 assay relative to control; format: cell-based; conditions: hepg2, 48 h
[11] = tested on: HeLa; experiment: Cytotoxicity against human HeLa cells at 60 uM after 48 hrs by WST-1 assay; format: cell-based
[12] = tested on: HepG2; experiment: Cytotoxicity against human HepG2 cells at 10 uM after 48 hrs by WST-1 assay relative to control; format: cell-based; conditions: hepg2, 48 h
[13] = Metabolic stability in Sprague-Dawley rat liver microsomes assessed as compound remaining at 10 uM after 30 mins by HPLC analysis; format: ADME; conditions: read-out: Stability
[14] = Metabolic stability in Sprague-Dawley rat liver microsomes assessed as compound remaining at 10 uM after 15 mins by HPLC analysis; format: ADME; conditions: read-out: Stability
[15] = target: T3, Polyunsaturated fatty acid 5-lipoxygenase (Homo sapiens) (UniProt P09917); experiment: Inhibition of 5-LO in human polymorphonuclear leukocytes using arachidonic acid as substrate at 10 uM preincubated for 15 mins followed by substrate addition measured after 10 mins by HPLC analysis in presence of Ca2+-ionophore A23187; format: cell-based
T3 sequence (whole entry): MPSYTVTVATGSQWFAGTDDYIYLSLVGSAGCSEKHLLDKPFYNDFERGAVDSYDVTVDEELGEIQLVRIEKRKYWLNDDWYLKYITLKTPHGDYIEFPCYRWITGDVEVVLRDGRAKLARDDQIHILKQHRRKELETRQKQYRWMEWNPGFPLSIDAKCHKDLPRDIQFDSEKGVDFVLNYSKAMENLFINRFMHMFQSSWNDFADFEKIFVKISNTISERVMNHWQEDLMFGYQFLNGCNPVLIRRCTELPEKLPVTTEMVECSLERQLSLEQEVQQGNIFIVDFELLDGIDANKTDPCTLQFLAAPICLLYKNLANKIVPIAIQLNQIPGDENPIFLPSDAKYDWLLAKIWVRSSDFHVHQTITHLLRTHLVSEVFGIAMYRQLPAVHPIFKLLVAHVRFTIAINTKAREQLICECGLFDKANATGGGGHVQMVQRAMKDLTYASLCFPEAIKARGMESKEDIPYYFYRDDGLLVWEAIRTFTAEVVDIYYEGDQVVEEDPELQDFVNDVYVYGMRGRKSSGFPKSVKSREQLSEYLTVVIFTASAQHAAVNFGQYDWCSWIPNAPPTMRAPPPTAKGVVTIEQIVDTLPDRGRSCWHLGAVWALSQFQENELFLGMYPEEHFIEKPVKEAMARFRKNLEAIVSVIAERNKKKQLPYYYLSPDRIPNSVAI

[16] = target: T4, Prostaglandin E synthase (Homo sapiens) (UniProt O14684); experiment: Inhibition of mPGES1 mediated PGE2 production in IL-1beta stimulated human A549 cells at 10 uM by RP-HPLC analysis; format: cell-based
T4 sequence (whole entry): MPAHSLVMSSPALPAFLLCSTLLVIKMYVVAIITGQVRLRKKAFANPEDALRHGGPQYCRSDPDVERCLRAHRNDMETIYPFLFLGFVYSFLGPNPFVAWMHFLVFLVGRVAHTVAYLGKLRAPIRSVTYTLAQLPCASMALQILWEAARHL

[17] = target: T5, Prostaglandin G/H synthase 1 (Ovis aries) (UniProt P05979); experiment: Inhibition of ovine COX1 using arachidonic acid as substrate up to 10 uM preincubated for 5 mins followed by substrate addition measured after 5 mins
T5 sequence (whole entry): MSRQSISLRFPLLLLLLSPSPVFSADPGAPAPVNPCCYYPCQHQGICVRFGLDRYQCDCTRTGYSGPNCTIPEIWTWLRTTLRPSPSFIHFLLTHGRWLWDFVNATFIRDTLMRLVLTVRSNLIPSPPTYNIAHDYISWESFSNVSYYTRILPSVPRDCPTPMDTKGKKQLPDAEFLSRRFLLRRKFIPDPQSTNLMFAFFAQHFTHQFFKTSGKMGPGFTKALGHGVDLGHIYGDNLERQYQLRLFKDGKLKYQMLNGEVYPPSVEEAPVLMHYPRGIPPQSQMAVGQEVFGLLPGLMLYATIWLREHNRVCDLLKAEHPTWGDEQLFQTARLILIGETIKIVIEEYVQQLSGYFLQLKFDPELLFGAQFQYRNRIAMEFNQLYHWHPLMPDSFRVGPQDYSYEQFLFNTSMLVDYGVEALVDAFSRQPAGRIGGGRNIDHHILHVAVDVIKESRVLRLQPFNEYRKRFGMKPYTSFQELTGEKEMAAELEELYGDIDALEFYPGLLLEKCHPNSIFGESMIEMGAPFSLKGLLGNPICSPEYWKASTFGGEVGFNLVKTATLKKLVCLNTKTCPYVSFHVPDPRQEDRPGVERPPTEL

[18] = target: T6, Prostaglandin G/H synthase 2 (Homo sapiens) (UniProt P35354); experiment: Inhibition of recombinant human COX2 using arachidonic acid as substrate up to 10 uM preincubated for 5 mins followed by substrate addition measured after 5 mins
T6 sequence (whole entry): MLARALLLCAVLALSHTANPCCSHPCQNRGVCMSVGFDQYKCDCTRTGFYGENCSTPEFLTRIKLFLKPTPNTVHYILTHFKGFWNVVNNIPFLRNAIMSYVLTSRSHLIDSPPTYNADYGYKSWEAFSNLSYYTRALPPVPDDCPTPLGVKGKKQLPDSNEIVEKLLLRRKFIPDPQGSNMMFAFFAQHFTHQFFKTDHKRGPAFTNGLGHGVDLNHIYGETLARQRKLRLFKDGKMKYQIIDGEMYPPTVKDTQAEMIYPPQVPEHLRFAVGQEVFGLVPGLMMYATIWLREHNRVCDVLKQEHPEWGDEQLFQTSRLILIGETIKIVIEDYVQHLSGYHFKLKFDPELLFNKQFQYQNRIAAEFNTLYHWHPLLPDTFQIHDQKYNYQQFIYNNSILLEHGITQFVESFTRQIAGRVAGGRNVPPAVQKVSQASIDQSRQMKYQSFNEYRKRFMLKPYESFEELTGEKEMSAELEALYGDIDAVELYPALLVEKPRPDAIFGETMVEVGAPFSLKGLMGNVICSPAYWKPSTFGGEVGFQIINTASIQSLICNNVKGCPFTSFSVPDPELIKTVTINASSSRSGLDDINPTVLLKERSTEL

max activation [1] [%] | EC50 [2] [µM] | max activation [5] | Structure (SMILES) | also measured
11.4 | 8.3 |  | O=C(O)CCCCNC(=O)c1ccccc1NC(=O)c1ccc2ccccc2c1 | 
 |  |  | COc1ccc(C(=O)Nc2ccccc2C(=O)NCCCC(=O)O)cc1 | max activation [3]: inactive; Activity [4]: Toxic
 |  | inactive | O=C(O)CCCNC(=O)c1ccccc1NC(=O)Cc1ccc2ccccc2c1 | 
 |  | inactive | O=C(O)CCCNC(=O)c1ccccc1NC(=O)c1cc([N+](=O)[O-])cc([N+](=O)[O-])c1 | 
12.4 | 0.72 |  | O=C(O)CCCNC(=O)c1ccccc1NC(=O)/C=C/c1ccccc1 | 
 |  | inactive | O=C(O)CCCNC(=O)c1ccccc1NC(=O)c1ccccc1-c1ccccc1 | 
28 | 5.8 |  | CCc1ccc(C(=O)Nc2ccccc2C(=O)NCCCC(=O)O)cc1 | 
 |  | inactive | O=C(O)CCCNC(=O)c1ccccc1NC(=O)CCc1ccccc1 | 
 |  | inactive | O=C(O)CCCNC(=O)c1ccccc1NC(=O)c1cccc(-c2ccccc2)c1 | 
 |  | inactive | O=C(O)CCCNCc1ccccc1NC(=O)c1ccc2ccccc2c1 | 
 |  | 11% | Cc1ccc(C(=O)Nc2ccccc2C(=O)NCCCC(=O)O)cc1 | 
 |  |  | O=C(O)CCCNC(=O)c1ccccc1NC(=O)c1ccc(-c2ccccc2)cc1 | max activation [3]: inactive; Activity [4]: Toxic
37 | 1.5 |  | O=C(O)c1cccc(NC(=O)c2ccccc2NC(=O)c2ccc3ccccc3c2)c1 | Activity [6]: 65%; solubility [7]: 0.3 µg/mL (≈ 0.731 µM); remaining at 1 h, 10 µM [8]: 61%; Activity [9]: 50%; Activity [10]: 46%; Activity [11]: Non-toxic; Activity [12]: 93%; remaining at 0.5 h, 10 µM [13]: 76%; remaining at 0.25 h, 10 µM [14]: 86%
9.8 | 3.1 |  | O=C(O)Cc1ccc(NC(=O)c2ccccc2NC(=O)c2ccc3ccccc3c2)cc1 | 
10.4 | 4.4 |  | O=C(O)CCCCCNC(=O)c1ccccc1NC(=O)c1ccc2ccccc2c1 | 
 |  | inactive | CN(CCCC(=O)O)C(=O)c1ccccc1NC(=O)c1ccc2ccccc2c1 | 
 |  | inactive | O=C(O)CCCNC(=O)c1ccccc1NC(=O)c1cccc2ccccc12 | 
19 | 2.5 |  | CC(C)(C)c1ccc(C(=O)Nc2ccccc2C(=O)NCCCC(=O)O)cc1 | 
37 | 8.55 |  | O=C(O)CCCNC(=O)c1ccccc1NC(=O)c1ccc2ccccc2c1 | inhibition [15]: inactive; Activity [6]: 90%; solubility [7]: 45 µg/mL (≈ 120 µM); inhibition [16]: inactive; remaining at 1 h, 10 µM [8]: 92%; inhibition [17]: inactive; Activity [9]: 81%; Activity [10]: 84%; Activity [11]: Non-toxic; inhibition [18]: inactive; Activity [12]: 92%; remaining at 0.5 h, 10 µM [13]: 93%; remaining at 0.25 h, 10 µM [14]: 93%
 |  | inactive | O=C(O)CCCNC(=O)c1ccccc1NC(=O)c1ccncc1 | 
 |  | inactive | O=C(O)CCCNC(=O)c1ccccc1NC(=O)CC(c1ccccc1)c1ccccc1 | 
 |  | inactive | CN(C(=O)c1ccc2ccccc2c1)c1ccccc1C(=O)NCCCC(=O)O | 
10 | 1.3 |  | O=C(O)c1ccc(CNC(=O)c2ccccc2NC(=O)c2ccc3ccccc3c2)cc1 | 
23 | 1 |  | O=C(O)c1ccc(NC(=O)c2ccccc2NC(=O)c2ccc3ccccc3c2)cc1 | 
 |  | inactive | O=C(O)CCCNC(=O)c1ccccc1NCc1ccc2ccccc2c1 | 
 |  | inactive | O=C(O)CCCNC(=O)c1ccccc1NS(=O)(=O)c1ccc2ccccc2c1 | 
 |  |  | O=C(O)CCCNC(=O)c1ccccc1NC(=O)C(c1ccccc1)c1ccccc1 | max activation [3]: inactive; Activity [4]: Toxic
19 | 7.1 |  | COC(=O)CCCNC(=O)c1ccccc1NC(=O)c1ccc2ccccc2c1 | 
 |  |  | O=C(O)CCCNC(=O)c1ccccc1NC(=O)c1cccs1 | max activation [3]: inactive; Activity [4]: Toxic
